According to patent US10538532B2, “Hepatitis B antiviral agents” (ENANTA PHARMACEUTICALS, INC., priority 2016, dated 2020):
Like-named read-outs stand apart in the source and are kept apart here.

Legend:
HBV = experiment: HepAD38 antiviral assay: reduction of viral product accumulation (virion DNA by qPCR, HBsAg or HBeAg by ELISA); type: cell-based, hepatitis B virus; conditions: HepAD38 cells, five days after compound addition, concentration reducing viral product accumulation by 50% relative to no drug controls, read-out: HepAD38 EC50
Summary of the method: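 HepAD38 cells were washed free of tetracycline, plated at 35,000 cells/well and given compounds diluted 1:200 from DMSO. After 5 days, or 8 days with media and compound refreshed on d2 and d5, virion DNA was measured by qPCR and HBsAg or HBeAg by ELISA. EC50 is the concentration giving 50% reduction of viral product versus no-drug controls.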

[1] = Compound toxicity, ATPLite total ATP levels; type: cell-based; conditions: human, HepAD38 cells, three days after compound addition, concentration reducing total ATP levels by 50% relative to no drug controls
Description: Methods: HepAD38 cells are maintained as previously reported (Ladner et al, Antimicrob. Agents Chemother. 1997, […], 1715). Briefly, cells are passaged upon attaining confluency in DMEM/F12 media in the presence of 10% FBS, Penn/Strep, 250 μg/mL G418, and 1 ug/ml tetracycline. Novel compounds are screened by first washing cells three times with PBS to remove tetracycline, and plating in 96 well plates at 35,000 cells/well. Compounds dissolved in DMSO are then diluted 1:200 into wells containing cells. Five days after compound addition, material is harvested for analysis. For an extended 8 day analysis, cells are plated and treated as described above, but media and compound are refreshed on d2 and d5 post initial treatment.
Compound toxicity is evaluated by seeding cells at 15,000 cells/well and treating with compound as described above.

[2] = Hepatitis B virus, HePAD38, 120 h

| Compound | EC50 (HBV; [2]) [µM] | CC50 at 3 days ([1]; class symbols) [µM] | CC50 at 3 days ([1]; numeric bounds) [µM] | EC50 (HBV) [µM] |
| --- | --- | --- | --- | --- |
| O=C(Nc1cc(F)c(F)c(F)c1)c1ccc(Cl)c(S(=O)(=O)[C@H]2CC3CCC(C2)[C@]3(O)c2ccccn2)c1 [Example 308] | < 0.1 | > 25 | – | – |
| COC(=O)N[C@H]1C2CCC1C[C@@H](S(=O)(=O)c1cc(C(=O)Nc3cc(F)c(F)c(F)c3)ccc1Cl)C2 [Example 309] | < 0.1 | > 25 | – | – |
| CS(=O)(=O)N[C@@H]1C2CC[C@H]1C[C@H](S(=O)(=O)c1cc(C(=O)Nc3cc(F)c(F)c(F)c3)ccc1Cl)C2 [Example 310] | < 0.1 | > 25 | – | – |
| O=C(Nc1cc(F)c(F)c(F)c1)c1ccc(Cl)c(S(=O)(=O)[C@H]2C3CC[C@H]2C[C@H](Cn2ccnc2)C3)c1 [Example 312] | < 0.1 | 10 to 25 | – | – |
| O=C(Nc1cc(F)c(F)c(F)c1)c1ccc(Cl)c(S(=O)(=O)[C@H]2C3CC[C@H]2C[C@](O)(Cn2cccn2)C3)c1 [Example 313] | < 0.1 | – | > 6.25 | – |
| O=C(Nc1cc(F)c(F)c(F)c1)c1ccc(Cl)c(S(=O)(=O)[C@H]2C3CC[C@H]2C[C@](O)(COCc2ccccn2)C3)c1 [Example 317] | < 0.1 | < 10 | – | – |
| O=C(Nc1cc(F)c(F)c(F)c1)c1ccc(Cl)c(S(=O)(=O)[C@H]2C3CC[C@H]2C[C@](O)(COCCO)C3)c1 [Example 319] | < 0.1 | > 25 | – | – |
| COC(=O)NC1CC2CC[C@@H](C1)[C@H]2S(=O)(=O)c1cc(C(=O)Nc2cc(F)c(F)c(F)c2)ccc1Cl (stereo partly shown) [Example 321] | < 0.1 | > 25 | – | – |
| O=C(Nc1cc(F)c(F)c(F)c1)c1ccc(Cl)c(S(=O)(=O)[C@H]2CC3CCC(C2)[C@]3(O)c2nccs2)c1 [Example 322] | < 0.1 | 10 to 25 | – | – |
| O=C(Nc1cc(F)c(F)c(F)c1)c1ccc(Cl)c(S(=O)(=O)[C@H]2CC3CCC(C2)[C@]3(O)CO)c1 [Example 324] | – | – | > 12.5 | < 0.1 |
| Cn1ccnc1[C@]1(O)CC2CC[C@@H](C1)[C@H]2S(=O)(=O)c1cc(C(=O)Nc2cc(F)c(F)c(F)c2)ccc1Cl [Example 329] | < 0.1 | – | > 6.25 | – |
| O=C(Nc1cc(F)c(F)c(F)c1)c1ccc(Cl)c(S(=O)(=O)[C@H]2C3CC[C@H]2C[C@](O)(c2ncc(-c4ccccc4)[nH]2)C3)c1 [Example 330] | < 0.1 | < 10 | – | – |
| O=C(Nc1cc(F)c(F)c(F)c1)c1ccc(Cl)c(S(=O)(=O)[C@H]2CC3CCC(C2)[C@]3(O)c2cccnc2)c1 [Example 331] | < 0.1 | 10 to 25 | – | – |
| O=C(Nc1cc(F)c(F)c(F)c1)c1ccc(Cl)c(S(=O)(=O)[C@H]2CC3CCC(C2)[C@]3(O)c2ccncc2)c1 [Example 332] | < 0.1 | 10 to 25 | – | – |
